Test results: patent US7947726B2, “Non-steroidal ligands for the glucocorticoid receptor, and compositions thereof” (The Regents of the University of California, priority 2002, dated 2011)
Read-outs that look alike come from different tables or passages of the source.

Assays:
GR [1] = molecular target: T1, GR (Rattus norvegicus, UniProt P06536); test: AP-1 repression luciferase assay in U2OS cells stably transfected with rat GR; type: cell-based; conditions: Table 5, TPA-stimulated U2OS cells; for EC50: read-out: Repression AP-1 pot (EC50); for Emax: 12 h, read-out: Repression AP-1 % max repression
T1 construct: expressed in transfected cells; gift of Keith Yamamoto
T1 sequence (P06536 1-795): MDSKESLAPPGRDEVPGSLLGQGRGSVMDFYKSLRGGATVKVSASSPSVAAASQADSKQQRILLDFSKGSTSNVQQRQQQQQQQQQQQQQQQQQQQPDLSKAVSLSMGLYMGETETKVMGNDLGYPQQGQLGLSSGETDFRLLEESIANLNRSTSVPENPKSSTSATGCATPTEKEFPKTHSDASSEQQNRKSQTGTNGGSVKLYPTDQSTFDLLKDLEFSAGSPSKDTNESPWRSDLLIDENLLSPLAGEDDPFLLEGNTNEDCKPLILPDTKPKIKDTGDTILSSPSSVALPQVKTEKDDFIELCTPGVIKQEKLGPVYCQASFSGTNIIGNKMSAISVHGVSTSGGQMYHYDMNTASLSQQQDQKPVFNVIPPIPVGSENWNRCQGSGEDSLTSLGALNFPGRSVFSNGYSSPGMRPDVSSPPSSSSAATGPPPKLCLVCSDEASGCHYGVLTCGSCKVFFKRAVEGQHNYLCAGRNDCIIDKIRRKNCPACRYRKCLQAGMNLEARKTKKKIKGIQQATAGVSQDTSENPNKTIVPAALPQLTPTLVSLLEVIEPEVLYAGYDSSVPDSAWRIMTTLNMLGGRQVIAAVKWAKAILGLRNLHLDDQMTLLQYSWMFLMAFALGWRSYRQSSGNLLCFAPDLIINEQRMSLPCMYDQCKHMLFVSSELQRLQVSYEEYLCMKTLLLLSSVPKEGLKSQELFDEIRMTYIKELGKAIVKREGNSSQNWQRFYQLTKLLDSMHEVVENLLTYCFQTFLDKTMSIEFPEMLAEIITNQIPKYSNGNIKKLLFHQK
Protocol: For API repression assays, U2OS cells stably transfected with rat GR were grown in similar media as for CV-1 cells with the exception of the FBS concentration, which was 10% and the only antibiotic was […]. Cells were plated and transfected in a similar fashion, except for plasmids, which in this case were 50 ng/well AP1-Luc and 10 ng/well β-galactosidase. Post-transfection, cells were incubated with either 50 ng/mL TPA (Phorbol 12-myristate 13-acetate), or 50 ng/mL TPA and various hormone dilutions in 10% charcoal treated FBS media. The cells were incubated for 12 h, and the lysis, β-galactosidase assay, and luciferase assay were performed as previously described.

[2] = molecular target: T2, glucocorticoid receptor (GR) (Homo sapiens, UniProt P04150); test: Glucocorticoid Receptor Competitor Assay Kit (Panvera) ligand binding; conditions: Table 3; relative binding affinity, dexamethasone = 100
T2 construct: purchased Panvera Corp, Madison, Wis
T2 sequence (P04150 1-777): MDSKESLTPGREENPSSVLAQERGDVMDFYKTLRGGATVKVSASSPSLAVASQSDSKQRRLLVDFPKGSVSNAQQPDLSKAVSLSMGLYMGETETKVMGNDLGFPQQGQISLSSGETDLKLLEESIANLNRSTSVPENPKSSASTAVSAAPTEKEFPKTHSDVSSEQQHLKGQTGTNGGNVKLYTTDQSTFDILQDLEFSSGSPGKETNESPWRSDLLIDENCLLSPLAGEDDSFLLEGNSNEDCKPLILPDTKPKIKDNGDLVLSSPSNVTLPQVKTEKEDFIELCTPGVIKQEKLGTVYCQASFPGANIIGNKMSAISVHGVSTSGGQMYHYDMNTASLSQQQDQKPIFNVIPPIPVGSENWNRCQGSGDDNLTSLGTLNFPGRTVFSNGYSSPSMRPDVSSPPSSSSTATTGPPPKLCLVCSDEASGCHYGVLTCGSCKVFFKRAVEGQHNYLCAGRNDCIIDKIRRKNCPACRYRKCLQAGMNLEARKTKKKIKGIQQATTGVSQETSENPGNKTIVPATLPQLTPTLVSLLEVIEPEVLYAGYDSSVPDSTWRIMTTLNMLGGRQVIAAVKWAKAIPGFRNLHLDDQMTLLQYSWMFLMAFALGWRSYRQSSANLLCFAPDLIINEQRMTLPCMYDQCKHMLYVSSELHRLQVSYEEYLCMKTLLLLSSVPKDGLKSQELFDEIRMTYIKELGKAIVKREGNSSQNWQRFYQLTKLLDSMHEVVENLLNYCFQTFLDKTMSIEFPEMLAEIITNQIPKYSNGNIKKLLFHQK
Description: The Glucocorticoid Receptor Competitor Assay Kit (Panvera Corp, Madison, Wis.) was used for ligand binding studies. The recommended room temperature protocol was followed for all assayed ligands.

MR = molecular target: T3, MR (Homo sapiens, UniProt P08235); test: MR activation (max fold activation); type: cell-based; conditions: Table 4
T3 sequence (P08235 1-984): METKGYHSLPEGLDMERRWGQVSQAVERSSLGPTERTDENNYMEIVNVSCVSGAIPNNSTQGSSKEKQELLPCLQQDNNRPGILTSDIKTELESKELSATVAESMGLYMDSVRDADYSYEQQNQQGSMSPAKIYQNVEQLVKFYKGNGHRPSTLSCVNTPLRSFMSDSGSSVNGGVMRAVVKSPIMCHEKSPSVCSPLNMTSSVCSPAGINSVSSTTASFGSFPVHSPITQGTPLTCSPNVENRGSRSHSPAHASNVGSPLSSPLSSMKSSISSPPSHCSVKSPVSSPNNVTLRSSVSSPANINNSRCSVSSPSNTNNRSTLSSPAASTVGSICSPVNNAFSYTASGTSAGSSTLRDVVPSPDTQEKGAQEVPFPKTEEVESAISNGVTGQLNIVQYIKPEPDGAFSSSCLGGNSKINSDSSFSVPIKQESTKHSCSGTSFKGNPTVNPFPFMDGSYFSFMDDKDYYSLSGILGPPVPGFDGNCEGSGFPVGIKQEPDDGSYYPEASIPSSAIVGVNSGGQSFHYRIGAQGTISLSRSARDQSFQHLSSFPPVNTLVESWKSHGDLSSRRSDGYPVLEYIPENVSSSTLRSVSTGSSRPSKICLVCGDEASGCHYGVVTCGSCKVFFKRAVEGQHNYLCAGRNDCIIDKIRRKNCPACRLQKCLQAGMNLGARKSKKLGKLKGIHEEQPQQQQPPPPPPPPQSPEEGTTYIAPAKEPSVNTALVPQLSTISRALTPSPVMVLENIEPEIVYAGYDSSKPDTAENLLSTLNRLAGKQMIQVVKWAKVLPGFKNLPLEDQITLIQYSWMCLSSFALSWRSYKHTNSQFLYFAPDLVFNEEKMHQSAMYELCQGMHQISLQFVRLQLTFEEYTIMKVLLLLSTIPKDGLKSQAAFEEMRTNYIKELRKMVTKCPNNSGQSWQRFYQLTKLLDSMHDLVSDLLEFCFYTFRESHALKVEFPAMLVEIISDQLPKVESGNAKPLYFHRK

GR [3] = molecular target: T4, GR (Homo sapiens, UniProt P04150); test: GRE (TAT3-Luc) activation luciferase assay in CV-1 cells transfected with GR; type: cell-based; conditions: Table 4; for EC50: read-out: GR pot (EC50)
T4 construct: expressed in transfected cells; host or cells: CV-1 cells, transient transfection (plasmid a gift of Keith Yamamoto, UCSF)
T4 sequence (P04150 1-777): T2 sequence (P04150 1-777)
Protocol: Cells were plated into tissue culture treated, 96 well flat bottom plates (25,000 cells/well), and incubated for 12 h at 37° C. Cells were then transfected using the Lipofectamine PLUS transfection reagent (Gibco BRL). DNA-lipid complexes of 5 ng GR, 50 ng TAT3-Luc, 7.5 ng β-galactosidase, 1 μL-well PLUS reagent and 0.67 μL-well lipofectamine in 50 μL/well serum free media were added to cells and incubated for 4 h at 37° C. Complexes were removed and hormones diluted in 5% charcoal-stripped FBS were added to the cells, which were then incubated for 24 hours at 37° C. Media was removed and the cells were washed with 100 μL Ca^+2, Mg^+2 free phosphate buffered saline (PBS). Lysis was achieved by adding 50 μL of Passive Lysis Buffer (Promega Corp, Madison, Wis.) and shaking the plate for 15 min. 15 μL of this lysate was then used to assay β-galactosidase activity (β-galactosidase enzyme assay system, Promega Corp., recommended procedures followed). The Luciferase Assay System (Promega Corp.) was used to assay luciferase activity. 100 μL of luciferase assay reagent was added rapidly to the plate and luminescence was measured for 10 ms/well on an Analyst AD Detection System (LJL Biosystems, Sunnyvale, Calif.).

Coll A = Coll A repression; type: cell-based; conditions: for Emax: read-out: Repression Coll A % max repression; for EC50: read-out: Repression Coll A pot (EC50)
NF-κB = NF-κB repression luciferase assay in A549 cells; type: cell-based, human; conditions: Table 5, TNF-α-stimulated A549 cells; for EC50: Homo sapiens, read-out: Repression NF-KB pot (EC50)
Description: Plasmids for GR (human, pSG5 backbone), AP1-Luc (synthetic AP1 response element upstream of a firefly luciferase gene), TAT3-Luc (three copies of the tyrosine aminotransferase glucocorticoid response element upstream of a firefly luciferase gene), β-galactosidase (used as a transfection control), as well as two stable transfected cells lines: an A549 (human, lung carcinoma) cell line stably transfected with a κB response element upstream of a firefly luciferase gene, (R. M. Nissen et al., Genes Dev., 14(18):2314-29, (2000)) and a U2OS (human, osteosarcoma) stably transfected with rat GR (I. Rogatsky, et al., Mol. Cell. Biol., 1997, 17, 3181-3193) were a gift of Professor Keith Yamamoto (Department of Biochemistry, University of California, San Francisco).
For NF-κB repression assays, A549 cells stably transfected with a luciferase reporter were grown under the same conditions as CV-1 cells. 50,000 cells/well were plated into 96 well plates and incubated for 12 h at 37° C. Either TNF-α alone or mixed with various hormone dilutions in media were then added to the cells, which were then incubated for 8 hours. Procedures for lysis and luciferase assay were performed as previously described. Protein content was used as a control in this case and the recommended procedures using the BCA Protein Assay Kit (Roche) were followed.

| Compound | EC50 (GR [1]) [nM] | Emax (GR [1]; U2OS) [%] | GR binding RBA (dex = 100) [2] | MR max fold activation (MR) | GRE activation max fold activation (GR [3]) | EC50 (GR [3]) [nM] | EC50 (Coll A; Table 5) [nM] | EC50 (NF-κB) [nM] | Emax (GR [1]) [%] | EC50 (Coll A; Table 2) [nM] | Emax (Coll A; Table 5) [%] | Repression NF-KB % max repression (NF-κB) [%] | Emax (Coll A; Table 2) [%] | Repression Coll A % max repression (Coll A; Table 5) [%] |
| --- | --- | --- | --- | --- | --- | --- | --- | --- | --- | --- | --- | --- | --- | --- |
| CC12Cc3cnn(-c4ccc(F)cc4)c3C=C1CCCC2C(O)c1csc2ccccc12 (centres unmarked) [Compound 221, 3a,7a-(Dihydro-benzo[b]thiophen-3-yl)-[1-(4-fluoro-phenyl)-4a-methyl-4,4a,5,6,7,8-hexahydro-1H-benzo[f]indazol-5-yl]-methanol] | 5.3 | 74 | 93 | 2.0 ± 0.7 | 21 | 313 | – | – | – | – | – | – | – | – |
| CC12Cc3cnn(-c4ccc(F)cc4)c3C=C1CCCC2C(O)c1cccc(O)c1 (centres unmarked) [Compound 229, 3-{[1-(4-Fluoro-phenyl)-4a-methyl-4,4a,5,6,7,8-hexahydro-1H-benzo[f]indazol-5-yl]-hydroxy-methyl}-phenol] | 16.6 | 77 | 52 | 3.1 ± 1.0 | 55 ± 2 | 110 ± 7 | – | – | – | – | – | – | – | – |

Second part, led by results:

| EC50 (GR [1]) [nM] | Emax (GR [1]; U2OS) [%] | GR binding RBA (dex = 100) [2] | MR max fold activation (MR) | GRE activation max fold activation (GR [3]) | EC50 (GR [3]) [nM] | EC50 (Coll A; Table 5) [nM] | EC50 (NF-κB) [nM] | Emax (GR [1]) [%] | EC50 (Coll A; Table 2) [nM] | Compound | Emax (Coll A; Table 5) [%] | Repression NF-KB % max repression (NF-κB) [%] | Emax (Coll A; Table 2) [%] | Repression Coll A % max repression (Coll A; Table 5) [%] |
| --- | --- | --- | --- | --- | --- | --- | --- | --- | --- | --- | --- | --- | --- | --- |
| 12.8 | 68 | 36 | 2.9 ± 0.5 | 69 ± 25 | 330 ± 92 | 28 | – | – | – | CC12Cc3cnn(-c4ccc(F)cc4)c3C=C1CCCC2C(O)c1ccc(O)cc1 (centres unmarked) [Compound 231, 4-{[1-(4-Fluoro-phenyl)-4a-methyl-4,4a,5,6,7,8-hexahydro-1H-benzo[f]indazol-5-yl]-hydroxy-methyl}-phenol] | 70 | – | – | – |
| – | – | – | – | – | – | 2.1 | 8.4 | – | – | C[C@]12CCC(=O)C=C1CC[C@@H]1[C@@H]2[C@@H](O)C[C@@]2(C)[C@H]1CC[C@]2(O)C(=O)CO [Cortisol, cortisol] | – | 83 | – | – |
| – | – | – | – | – | – | – | 1.5 | 89 | 0.36 | C[C@@H]1C[C@H]2[C@@H]3CCC4=CC(=O)C=C[C@]4(C)[C@@]3(F)[C@@H](O)C[C@]2(C)[C@@]1(O)C(=O)CO [Dexamethasone, dexamethasone, reference compound] | – | 87 | 84 | 84 |
